Data on eight compounds can be found in PubChem BioAssay (NCI).

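Exposure lasted 48 hours, with cells grown in 96-well plates and compounds tested at five concentrations. The concentration for full growth arrest is given as TGI.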

Some test systems named below: 786-0 renal; ACHN renal; HCC-2998 colon; HOP-62 NSCLC; HT29 colon; KM12 colon; MALME-3M melanoma; MDA-MB-435; NCI-H522 lung; NCI/ADR-RES ovarian; RPMI-8226 leukemia; SF-295 CNS; SK-MEL-28 melanoma; SK-OV-3 ovarian; SNB-19 CNS; SNB-75 CNS; T-47D breast; BT-549 breast.
Experiment in all cases: DTP human tumour cell line panel, 48 h

As usually defined, the TGI is the concentration giving total growth inhibition. Low values mean greater sensitivity of the cells, high ones lower sensitivity of the cells. On to `S=C=Nc1ccc(CSc2nc3ccccc3[nH]2)cc1`, for which the TGI in the test with 786-0 renal amounted to 37.5 µM; in the test with ACHN renal, 30.5 µM; with HCC-2998 colon it was 32.1 µM; with HOP-62 NSCLC it was 32.1 µM; with HT29 colon, 32.6 µM; in the test on KM12 colon, 31.7 µM. In addition, the TGI with MALME-3M melanoma worked out at 32 µM; in the test on MDA-MB-435, 33.9 µM; in the test on NCI-H522 lung it was 19.1 µM; with NCI/ADR-RES ovarian, 33 µM; with RPMI-8226 leukemia, 52.5 µM; with SF-295 CNS, 32.3 µM. The TGI in the test with SK-MEL-28 melanoma worked out at 37.3 µM; in the test on SK-OV-3 ovarian it was 40.3 µM; in the test on SNB-19 CNS it was 86.1 µM; in the test on SNB-75 CNS it was 32 µM; with T-47D breast it was 31.8 µM.

For `c1cc(-c2ccc(-c3nc4ccc(C5=NCCN5)cc4s3)s2)ccc1C1=NCCN1`, the TGI with 786-0 renal was determined as 0.272 µM; in the test with ACHN renal it was 1.28 µM; in the test on BT-549 breast, 5.27 µM; in the test on HCC-2998 colon it was 0.162 µM; in the test on HOP-62 NSCLC, 0.257 µM; in the test on HT29 colon, 2.08 µM. In addition, the TGI with KM12 colon was 1.67 µM; in the test with MALME-3M melanoma, 1.4 µM; in the test on NCI/ADR-RES ovarian it was greater than 100 µM; in the test with RPMI-8226 leukemia, 1.22 µM; with SF-295 CNS, 0.249 µM; in the test with SNB-19 CNS, 9.38 µM. In the test with T-47D breast, this compound came in with a total growth inhibition concentration (TGI) of 1.42 µM.

In the case of `CCCCN(CCCC)CCC(O)c1cc(-c2ccc(C(F)(F)F)cc2)nc(-c2ccc(C(F)(F)F)cc2)c1` (stereo unspecified), the total growth inhibition concentration (TGI) in the test on 786-0 renal, with ACHN renal, with HCC-2998 colon, with HOP-62 NSCLC, in the test with HT29 colon and in the test with MALME-3M melanoma was greater than 100 µM throughout. For the same compound, the TGI with MDA-MB-435, in the test with NCI-H522 lung, with NCI/ADR-RES ovarian, in the test with RPMI-8226 leukemia, in the test with SF-295 CNS and with SK-MEL-28 melanoma was greater than 100 µM in each case. The total growth inhibition concentration (TGI) in the test on SNB-19 CNS, in the test with SNB-75 CNS and in the test on T-47D breast was greater than 100 µM each time.

In the case of `COC(=O)C1CCC(=O)N1CN(C(C)=O)c1cc(OC)ccc1OC` (stereo unspecified), the TGI with 786-0 renal, in the test with ACHN renal, in the test with HOP-62 NSCLC, in the test with HT29 colon, in the test on KM12 colon and in the test on MALME-3M melanoma was greater than 100 µM throughout. Also, the concentration for total growth inhibition (TGI) with MDA-MB-435, with NCI-H522 lung, with NCI/ADR-RES ovarian, in the test with RPMI-8226 leukemia, in the test on SF-295 CNS and in the test with SK-MEL-28 melanoma was greater than 100 µM in each case. Moreover, the TGI in the test on SK-OV-3 ovarian, in the test on SNB-19 CNS, in the test with SNB-75 CNS and in the test on T-47D breast was greater than 100 µM in each case.

As to `CC1C2CCC3C(O)C2(CC(O)C2(O)C1CC(O)C2(C)C)CC3(C)O` (stereo unspecified), the TGI with 786-0 renal, with ACHN renal, with BT-549 breast, with HCC-2998 colon, in the test on HT29 colon and in the test with KM12 colon was greater than 100 µM throughout. The concentration for total growth inhibition (TGI) with MALME-3M melanoma, with MDA-MB-435, in the test with NCI-H522 lung, in the test with NCI/ADR-RES ovarian, in the test with SF-295 CNS and in the test on SK-MEL-28 melanoma was greater than 100 µM in each case. Moreover, the TGI in the test with SK-OV-3 ovarian, in the test with SNB-19 CNS and with T-47D breast was greater than 100 µM in each case.

For the compound `COC1CC(OC2CCC3(C)C(=CCC4C3C(OC(C)=O)C(OC(=O)CC(C)C)C3(C)C(C(C)=O)CCC43O)C2)OC(C)C1OC1CC(OC)C(OC2CC(OC)C(OC3OC(C)C(O)C(OC)C3O)C(C)O2)C(C)O1` (stereo unspecified), the total growth inhibition concentration (TGI) was 59.9 µM in the test with 786-0 renal; greater than 100 µM with ACHN renal; 69.6 µM in the test on BT-549 breast; 70.3 µM with HCC-2998 colon; greater than 100 µM with HOP-62 NSCLC; 42.8 µM in the test with HT29 colon. Moreover, the concentration for total growth inhibition (TGI) with KM12 colon was greater than 100 µM; in the test with MALME-3M melanoma it was greater than 100 µM; in the test with MDA-MB-435, 63.5 µM; in the test on NCI-H522 lung, greater than 100 µM; in the test on RPMI-8226 leukemia it was 45.8 µM; with SF-295 CNS, greater than 100 µM. The TGI in the test with SK-MEL-28 melanoma was greater than 100 µM; with SK-OV-3 ovarian it was greater than 100 µM; in the test with SNB-19 CNS, greater than 100 µM; in the test with SNB-75 CNS it was 70 µM; in the test with T-47D breast it was greater than 100 µM.

For `CN(C)CCCNc1ccc2nnn3c4ccc(OC(=O)c5ccccc5)cc4c(=O)c1c23`, the concentration for total growth inhibition (TGI) in the test on 786-0 renal was 17.5 µM; with ACHN renal it was 16.5 µM; with BT-549 breast, 32.7 µM; in the test on HCC-2998 colon, 26.1 µM; in the test on HOP-62 NSCLC, 20.9 µM; with HT29 colon, 22.2 µM. Moreover, the total growth inhibition concentration (TGI) in the test with KM12 colon is 23.3 µM; with MALME-3M melanoma, 29.2 µM; with MDA-MB-435, 19.1 µM; in the test on NCI-H522 lung it was 10.5 µM; in the test with NCI/ADR-RES ovarian, 37.9 µM; with RPMI-8226 leukemia, 25.5 µM. For the same compound, the total growth inhibition concentration (TGI) is 24.3 µM in the test on SF-295 CNS; 30.2 µM in the test on SK-MEL-28 melanoma; 42.9 µM with SK-OV-3 ovarian; 25.4 µM in the test on SNB-19 CNS; 37.5 µM in the test on T-47D breast.

With `c1csc(-c2nccc3c2[nH]c2ccccc23)c1`, the TGI in the test with 786-0 renal is 32.9 µM; in the test with ACHN renal it was 73.7 µM; in the test with HCC-2998 colon, 39.6 µM; in the test with HOP-62 NSCLC, 39.2 µM; with HT29 colon it was 29.3 µM; in the test on KM12 colon it was 34.4 µM. In addition, the TGI in the test on MALME-3M melanoma was found to be 47.2 µM; in the test on MDA-MB-435 it was 32.2 µM; with NCI-H522 lung, 41.5 µM; in the test on NCI/ADR-RES ovarian it was 54.8 µM; with SF-295 CNS it was 34.9 µM; in the test on SK-MEL-28 melanoma, 43 µM. Besides, the concentration for total growth inhibition (TGI) in the test with SK-OV-3 ovarian is 41.5 µM; in the test with SNB-19 CNS it was greater than 100 µM; in the test with SNB-75 CNS, 42.8 µM; in the test on T-47D breast, 63.2 µM.
